Structures are written as SMILES.

The target of this assay is Urokinase-type plasminogen activator (Homo sapiens) (UniProt P00749). As to the kind of experiment: Binding affinity to uPA.
As for `N#Cc1cc(-c2ccccc2)n(Cc2nc3ccccc3[nH]2)c1N`, the Ki is 1 pM.
The same measure for `N#Cc1cc(-c2ccccc2)n(-c2ccc(Cl)cc2)c1N`: 3 pM; for `N#Cc1cc(-c2ccccc2)n(-c2ccc(Br)cc2)c1N`: 3 pM.

Usually Ki stands for the dissociation constant of the complex between target and ligand, obtained from inhibition or displacement. A high value points to lower affinity.

(Values after BindingDB's records for doi:10.1016/j.bmc.2012.10.010 (National Research Center, 2012).)
